Source: US20120196899A1, “METHODS AND PRODUCTS FOR TREATING INFLAMMATION” (Rock Creek Pharmaceuticals, Inc., priority 2010, published 2012)
“And” between values parts separate entries of the source, which are not always exact repeats. Identical values can stand only once. Like-named read-outs stand apart in the source and are kept apart here.

Assay: Plasma pharmacokinetics after oral multi-dose anatabine polacrilex
Assay type: in vivo, Sprague-Dawley rats
Settings: for Cp,max(1): after dose 1, mean; for Cp,max(3): after dose 3, mean; for Cp,max(2): after dose 2, mean; for AUC(0-inf) / concentration at 270 min / concentration at 300 min / concentration at 475 min / concentration at 540 min / concentration at 600 min / concentration at 720 min / concentration at 30 min / concentration at 60 min / concentration at 235 min / half-life: Sprague-Dawley, rat, plasma; for AUC(0-inf) / half-life: po; for concentration at 270 min / concentration at 300 min / concentration at 475 min / concentration at 540 min / concentration at 600 min / concentration at 720 min / concentration at 30 min / concentration at 60 min / concentration at 235 min: oral, Avg. Conc. of anatabine in plasma, Male and Female
Experimental: This study consisted of two groups of 8 animals each, 4 males and 4 females.
Two formulations were prepared; one for each of the two treatment groups. The test compound was formulated for each treatment group just prior to the first dose administration and constantly stirred until dosing was completed (Table 37). Four aliquots of each dose level formulation were collected and stored at −80° C.
The animals were weighed prior to dosing and received three doses p.o. of test compound at a volume of 5 mL/kg. Blood was collected via the venus plexus (retro-orbital) into tubes containing (K2) EDTA. No more than 0.5 mL was collected per time point.
Plasma was separated as per package instructions for MICROTAINER® brand collection tubes (3 minutes, 2000×g). Plasma was decanted into microfuge tubes and stored at −80° C. Remaining test compound was placed at −80° C.
Sample preparation. Plasma samples were treated with three volumes of methanol containing internal standard at 1 μM (R,S)-Antabine-2,4,5,6-d4), incubated 10 min at 4° C., and centrifuged. The amount of the test agent in the supernatant was determined by LC/MS/MS.
Analysis. Samples were analyzed by LC/MS/MS using an Agilent 6410 mass spectrometer coupled with an Agilent 1200 high pressure liquid chromatography (HPLC) and a CTC PAL chilled autosampler, all controlled by MassHunter software (Agilent). After separation on a Hydrophilic interaction liquid chromatography (HILIC) HPLC column (Sepax) using an acetonitrile-ammonium acetate/acetic acid gradient system, peaks were analyzed by mass spectrometry (MS) using ESI ionization in multiple reaction monitoring (MRM) mode. MassHunter software was used to calculate the concentration of the test compounds in samples from the peak area using the appropriate calibration curves.
Calibration samples. Calibration curves were determined in rat plasma. Calibration samples were prepared by diluting a 50× stock solution of the test compound in PBS with blank matrix to the appropriate concentration and these samples were prepared as described above in the sample preparation.
Data Analysis. Descriptive statistics were calculated for all pharmacokinetic parameters. Elimination half-lives (t1/2) were calculated by linear regression of logarithmically transformed plasma concentration data for each period between doses and following the final dose.
Total areas under the plasma concentration curves (AUC) and under the first moment curves (AUMC) were calculated using linear trapezoidal summation across all concentration time points as well as for intervals between each dose administration and following the final dose. […] Mean absorption times (MAT) were calculated according to the following relation: […]
where MRT represents the mean residence time. This was calculated from the mean residence times.
The statistical comparison of parameters between male and female animals was made using a two-tailed, unpaired, t-test with a 95 percent confidence interval. Repeated-measures analysis of variance (ANOVA) was used for multiple comparisons of Cp, max involving successive determinations on the same group of animals.

[1] = 0.6 mg/kg, male and female combined, mean
[2] = 6.0 mg/kg, male and female combined, mean
[3] = all data combined (overall), mean
[4] = both dose levels and genders combined, anatabine polacrilex p.o.
[5] = both treatment groups combined, female rats, mean
[6] = both treatment groups combined, male rats, mean

## C1=CCC(c2cccnc2)NC1 (racemic) [Anatabine, 1,2,3,6-tetrahydro-[2,3′]bipyridinyl]
0.6 mg/kg BW group, first value of male versus female comparison
  Cp,min(2): 15.3 ± 5.5 ng/mL
0.6 mg/kg BW group, second value of male versus female comparison
  Cp,min(2): 7.5 ± 1.7 ng/mL
0.6 mg/kg, female rats
  Cp,max(1): 38.3 ng/mL
0.6 mg/kg, female rats, mean
  Cp,min(1): 10.3 ng/mL
  Cp,min(2): 7.5 ng/mL
  MAT0→4 (mean absorption time): 0.53 h
  MTT0→4 (mean transit time): 2.98 h
  AUC(0-inf): 290 ng·h/mL
[1]
  AUC0→∞: 285 ng·h/mL
  MAT0→4: 0.61 h
  MTT0→4: 3.06 h
0.6 mg/kg, male rats
  Cp,max(1): 34.3 ng/mL
  Cp,max(3): 37.3 ng/mL
0.6 mg/kg, male rats, mean
  Cp,min(1): 11.0 ng/mL
  Cp,min(2): 15.3 ng/mL
  MAT0→4 (mean absorption time): 0.71 h
  MTT0→4 (mean transit time): 3.17 h
  AUC(0-inf): 280 ng·h/mL
6.0 mg/kg BW group, first value of male versus female comparison
  Cp,min(2): 93 ± 16 ng/mL
6.0 mg/kg, female rats
  Cp,max(1): 260 ng/mL and 259.8 ng/mL
  Cp,max(2): 312 ng/mL and 312.0 ng/mL
  Cp,max(3): 375 ng/mL and 374.8 ng/mL
6.0 mg/kg, female rats, mean
  Cp,min(1): 52 ng/mL and 51.5 ng/mL
  Cp,min(2): 180 ng/mL and 180.0 ng/mL
  MAT0→4 (mean absorption time): 0.30 h
  MTT0→4 (mean transit time): 2.76 h
  AUC(0-inf): 3740 ng·h/mL
[2]
  AUC0→∞: 3496 ng·h/mL
  MAT0→4: 0.52 h
  MTT0→4: 2.97 h
6.0 mg/kg, male rats
  Cp,max(1): 287 ng/mL
  Cp,max(2): 305 ng/mL
6.0 mg/kg, male rats, mean
  Cp,min(1): 75 ng/mL
  Cp,min(2): 93 ng/mL
  MAT0→4 (mean absorption time): 0.73 h
  MTT0→4 (mean transit time): 3.18 h
  AUC(0-inf): 3260 ng·h/mL
[3]
  MAT0→4: 0.56 h
  MTT0→4: 3.01 h
[4]
  mean absorption time (MAT0→4): 0.56 ± 1.25 h
  mean transit time (MTT0→4): 3.01 ± 1.25 h
Both sexes, 0.2 mg/kg BW, dose group 0.2, combined male and female, 270 min
  concentration at 270 min: 26 ng/mL
Both sexes, 0.2 mg/kg BW, dose group 0.2, combined male and female, 300 min
  concentration at 300 min: 27 ng/mL
Both sexes, 0.2 mg/kg BW, dose group 0.2, combined male and female, 475 min
  concentration at 475 min: 11 ng/mL
Both sexes, 0.2 mg/kg BW, dose group 0.2, combined male and female, 540 min
  concentration at 540 min: 30 ng/mL
Both sexes, 0.2 mg/kg BW, dose group 0.2, combined male and female, 600 min
  concentration at 600 min: 26 ng/mL
Both sexes, 0.2 mg/kg BW, dose group 0.2, combined male and female, 720 min
  concentration at 720 min: 13 ng/mL
Both sexes, 0.2 mg/kg, dose group 0.2, combined male and female, 30 min
  concentration at 30 min: 36 ng/mL
Both sexes, 0.2 mg/kg, dose group 0.2, combined male and female, 60 min
  concentration at 60 min: 31 ng/mL
Both sexes, 0.2 mg/kg, dose group 0.2, combined male and female, 235 min
  concentration at 235 min: 10 ng/mL
Both sexes, 2 mg/kg BW, dose group 2, combined male and female, 30 min
  concentration at 30 min: 201 ng/mL
Both sexes, 2 mg/kg BW, dose group 2, combined male and female, 60 min
  concentration at 60 min: 139 ng/mL
Both sexes, 2 mg/kg BW, dose group 2, combined male and female, 235 min
  concentration at 235 min: 63 ng/mL
Both sexes, 2 mg/kg BW, dose group 2, combined male and female, 270 min
  concentration at 270 min: 278 ng/mL
Both sexes, 2 mg/kg BW, dose group 2, combined male and female, 300 min
  concentration at 300 min: 222 ng/mL
Both sexes, 2 mg/kg BW, dose group 2, combined male and female, 475 min
  concentration at 475 min: 136 ng/mL
Both sexes, 2 mg/kg BW, dose group 2, combined male and female, 540 min
  concentration at 540 min: 286 ng/mL
Both sexes, 2 mg/kg BW, dose group 2, combined male and female, 600 min
  concentration at 600 min: 237 ng/mL
Both sexes, 2 mg/kg BW, dose group 2, combined male and female, 720 min
  concentration at 720 min: 194 ng/mL
Both sexes, 0.6 mg/kg, 0.6 mg/kg BW total p.o., after final dose, males and females combined, read-out: t1/2, terminal (converted)
  half-life: 1.79 ± 0.64 h
Both sexes, 0.6 mg/kg, male and female combined, mean, read-out: t1/2,0→4 (converted)
  half-life: 2.05 h
Both sexes, 0.6 mg/kg, male and female combined, mean, read-out: t1/2,terminal (converted)
  half-life: 1.79 h
Both sexes, 6 mg/kg, 6.0 mg/kg BW total p.o., after final dose, males and females combined, read-out: t1/2, terminal (converted)
  half-life: 4.53 ± 1.77 h
Both sexes, 6 mg/kg, male and female combined, mean, read-out: t1/2,0→4 (converted)
  half-life: 1.79 h
Both sexes, 6 mg/kg, male and female combined, mean, read-out: t1/2,terminal (converted)
  half-life: 4.53 h
Both sexes, all data combined (overall), mean, read-out: t1/2,0→4 (converted)
  half-life: 1.93 h
Both sexes, both dose levels and genders combined, anatabine polacrilex p.o., read-out: elimination half-life following the first oral dose (t1/2, 0→4) (converted)
  half-life: 1.93 ± 0.73 h
Both sexes, 0.6 mg/kg BW total p.o., males and females combined
  AUC(0-inf): 285 ± 77 ng·h/mL
Both sexes, 6.0 mg/kg BW total p.o., males and females combined
  AUC(0-inf): 3500 ± 559 ng·h/mL
[5]
  MAT0→4: 0.42 h
  MTT0→4: 2.87 h
[6]
  MAT0→4: 0.72 h
  MTT0→4: 3.18 h
Dose 0.2 mg/kg, female, […], individual animals 2A-2D
  Anatabine Concentration in rat plasma: <LOQ
Dose 0.2 mg/kg, male, 30 min, individual animals 1A-1D
  Anatabine Concentration in rat plasma: <LOQ
Dose 0.2 mg/kg, male, 60 min, individual animals 1A-1D
  Anatabine Concentration in rat plasma: 34 ng/mL
Dose 0.2 mg/kg, male, 235 min, individual animals 1A-1D
  Anatabine Concentration in rat plasma: <LOQ and 13 ng/mL
Dose 0.2 mg/kg, male, 270 min, individual animals 1A-1D
  Anatabine Concentration in rat plasma: 31 ng/mL and 20 ng/mL
Dose 0.2 mg/kg, male, 300 min, individual animals 1A-1D
  Anatabine Concentration in rat plasma: 26 ng/mL and 29 ng/mL
Dose 0.2 mg/kg, male, 475 min, individual animals 1A-1D
  Anatabine Concentration in rat plasma: 9 ng/mL and <LOQ and 18 ng/mL
Dose 0.2 mg/kg, male, 540 min, individual animals 1A-1D
  Anatabine Concentration in rat plasma: 4 ng/mL and 28 ng/mL and 41 ng/mL
Dose 0.2 mg/kg, male, 600 min, individual animals 1A-1D
  Anatabine Concentration in rat plasma: <LOQ and 17 ng/mL and 35 ng/mL
Dose 0.2 mg/kg, male, 720 min, individual animals 1A-1D
  Anatabine Concentration in rat plasma: <LOQ and 5 ng/mL and 12 ng/mL
Dose 0.2 mg/kg, male, […], individual animals 1A-1D
  Anatabine Concentration in rat plasma: <LOQ
Dose 2 mg/kg, female, 30 min, individual animals 4A-4D
  Anatabine Concentration in rat plasma: 78 ng/mL and 218 ng/mL and 98 ng/mL
Dose 2 mg/kg, female, 60 min, individual animals 4A-4D
  Anatabine Concentration in rat plasma: 81 ng/mL and 95 ng/mL and 165 ng/mL
Dose 2 mg/kg, female, 235 min, individual animals 4A-4D
  Anatabine Concentration in rat plasma: 75 ng/mL and 36 ng/mL and 23 ng/mL and 72 ng/mL
